17 molecules from US8841453B2, “Hybrid cholinesterase inhibitors” (priority 2011, dated 2014) can be followed below.

Test [1] addresses BChE from the plasma (Homo sapiens (Human), UniProt P06276). In words: Ellman's method, butyrylcholinesterase inhibition. The format is biochemical. The conditions noted are these: for IC50: human plasma BChE, Ellman's method, phosphate buffer pH 8.0 as reference; for Selectivity IC50(AChE)/IC50(BChE): ratio of IC50 for AChE to IC50 for BChE. On the procedure: (§1) The biological activity of the compounds of general formula (I) towards the cholinesterase inhibition was evaluated using Ellman's method (Ellman, G. L.; Courtney, K. D.; Anders, B.; Featherstone, R. M. Biochem. Pharmacol. 1961, 7, 88-95).
(§2) The inhibitor causes the enzyme activity drop which is dependent on the inhibitor concentration. […] The amount of the hydrolyzed ASCh/BSCh is measured indirectly, by quantification of the product of its reaction with DTNB (5,5′-dithio-bis-2-nitrobenzoic acid). Ellman's method relies therefore on the spectrophotometric quantification of product of the reaction between acylthiocholine and DTNB. IC50 value corresponds to the inhibitor concentration which causes the 50% decrease of the enzyme activity.
(§3) The enzymes are derived from human blood: AChE from the erythrocytes and BChE from the plasma. The phosphate buffer of pH 8.0 is used as the reference compound (lack of inhibition; enzyme activity—100%).
(In general: DTNB colorimetry detects thiols as they appear.)

The target in test [2] is AChE from the erythrocytes (Homo sapiens (Human), UniProt P22303). In words: Ellman's method, acetylcholinesterase inhibition. The format is biochemical. The conditions noted are these: human erythrocyte AChE, phosphate buffer pH 8.0 as reference. The procedure:
as §1, §2, §3

Structures are written as SMILES.

Sequence of AChE from the erythrocytes (P22303 32-574 with tags or gaps limits assumed): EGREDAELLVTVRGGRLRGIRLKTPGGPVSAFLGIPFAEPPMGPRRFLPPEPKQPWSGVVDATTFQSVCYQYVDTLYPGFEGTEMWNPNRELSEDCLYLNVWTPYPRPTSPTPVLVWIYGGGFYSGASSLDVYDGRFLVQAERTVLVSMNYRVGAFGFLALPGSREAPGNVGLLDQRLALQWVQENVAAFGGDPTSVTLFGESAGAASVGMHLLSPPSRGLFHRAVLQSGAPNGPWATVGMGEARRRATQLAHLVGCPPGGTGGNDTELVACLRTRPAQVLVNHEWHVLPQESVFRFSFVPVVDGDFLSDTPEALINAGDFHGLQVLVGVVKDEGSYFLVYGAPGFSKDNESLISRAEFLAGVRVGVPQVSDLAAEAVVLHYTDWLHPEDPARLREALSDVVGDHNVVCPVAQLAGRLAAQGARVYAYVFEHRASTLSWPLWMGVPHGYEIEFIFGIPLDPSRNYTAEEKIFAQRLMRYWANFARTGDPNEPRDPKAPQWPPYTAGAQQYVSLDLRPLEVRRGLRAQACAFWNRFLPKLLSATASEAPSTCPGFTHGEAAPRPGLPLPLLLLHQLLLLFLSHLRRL
Sequence of BChE from the plasma (P06276 29-602): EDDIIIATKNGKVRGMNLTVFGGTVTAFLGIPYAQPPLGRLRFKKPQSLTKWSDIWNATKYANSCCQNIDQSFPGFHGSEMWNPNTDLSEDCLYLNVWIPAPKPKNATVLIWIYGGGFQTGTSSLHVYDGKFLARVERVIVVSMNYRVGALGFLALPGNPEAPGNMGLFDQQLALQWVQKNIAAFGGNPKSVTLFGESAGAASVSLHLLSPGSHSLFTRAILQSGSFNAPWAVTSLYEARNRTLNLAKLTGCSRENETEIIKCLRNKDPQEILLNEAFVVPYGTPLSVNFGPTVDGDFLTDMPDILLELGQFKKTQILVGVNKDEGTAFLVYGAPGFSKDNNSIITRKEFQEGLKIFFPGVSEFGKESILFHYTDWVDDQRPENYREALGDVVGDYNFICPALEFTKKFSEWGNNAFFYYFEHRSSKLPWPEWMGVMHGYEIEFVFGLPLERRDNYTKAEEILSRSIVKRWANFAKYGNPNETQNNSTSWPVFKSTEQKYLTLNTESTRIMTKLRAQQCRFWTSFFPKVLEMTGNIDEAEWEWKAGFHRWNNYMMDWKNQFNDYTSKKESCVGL

As to `CC(=O)O[C@@]12CCN(C(C)=O)[C@@H]1N(C(C)=O)c1ccc(OC(=O)NCCCCCCNc3c4c(nc5ccccc35)CCCC4)cc12` (stereo in doubt) [Example 7, 1,8-diacetyl-5-({[6-(1,2,3,4-tetrahydroacridin-9-ylamino)hexyl]carbamoyl}oxy)-2,3,8,8a-tetrahydropyrrolo[2,3-b]indol-3a(1H)-yl acetate], in test [1], the IC50 stood at 3.15 ± 0.83 nM and the “Selectivity IC50(AChE)/IC50(BChE)” value came out at 11.7. In test [2], this molecule gave a 50% inhibitory concentration (IC50) of 36.8 ± 2.87 nM.

For `CC(=O)NCCc1c[nH]c2ccc(OC(=O)NCCCCCCCNc3c4c(nc5ccccc35)CCCC4)cc12` [Example 1, 3-[2-(acetylamino)ethyl]-1H-indol-5-yl[7-(1,2,3,4-tetrahydroacridin-9-ylamino)heptyl]carbamate], in test [1], half-maximal inhibition (IC50) was put at 0.25 ± 0.02 nM and the “Selectivity IC50(AChE)/IC50(BChE)” value turned out to be 135.1. For the same molecule, the IC50 in test [2] stood at 33.8 ± 2.74 nM.

For the molecule `CC(=O)NCCc1c[nH]c2ccc(OC(=O)NCCCCCCNc3c4c(nc5ccccc35)CCCC4)cc12` [Example 3, 3-[2-(acetylamino)ethyl]-1H-indol-5-yl[6-(1,2,3,4-tetrahydroacridin-9-ylamino)hexyl]carbamate], the results for the half-maximal inhibitory concentration (IC50) in test [1] and in test [2] were 2.04 ± 0.22 nM and 178 ± 16.3 nM, respectively. Also, the “Selectivity IC50(AChE)/IC50(BChE)” value in test [1] was found to be 87.4.

Turning to `CC(=O)NCCc1c[nH]c2ccc(OC(=O)NCCCCCCCNc3c4c(nc5cc(Cl)ccc35)CCCC4)cc12` [Example 4, 3-[2-(acetylamino)ethyl]-1H-indol-5-yl{7-[(6-chloro-1,2,3,4-tetrahydroacridin-9-yl)amino]heptyl}carbamate], the “Selectivity IC50(AChE)/IC50(BChE)” value in test [1] came out at 20.3.

Regarding `CC(=O)NCCc1c[nH]c2ccc(OC(=O)NCCNc3c4c(nc5cc(Cl)ccc35)CCCC4)cc12` [Example 5, 3-[2-(acetylamino)ethyl]-1H-indol-5-yl{2-[(6-chloro-1,2,3,4-tetrahydroacridin-9-yl)amino]ethyl}carbamate], the “Selectivity IC50(AChE)/IC50(BChE)” value in test [1] was 0.6.

`CC(=O)NCCc1c[nH]c2ccc(OC(=O)NCCCNc3c4c(nc5ccccc35)CCCC4)cc12` [Example 8, 3-[2-(acetylamino)ethyl]-1H-indol-5-yl[3-(1,2,3,4-tetrahydroacridin-9-ylamino)propyl]carbamate]: the IC50 worked out at 58.2 ± 9.62 nM in test [1] and 270 ± 19.4 nM in test [2]. Besides, the “Selectivity IC50(AChE)/IC50(BChE)” value in test [1] worked out at 4.6.

On to `CC(=O)NCCc1c[nH]c2ccc(OC(=O)NCCCCNc3c4c(nc5ccccc35)CCCC4)cc12` [Example 9, 3-[2-(acetylamino)ethyl]-1H-indol-5-yl[4-(1,2,3,4-tetrahydroacridin-9-ylamino)butyl]carbamate], for which, in test [1], the 50% inhibitory concentration (IC50) amounted to 15.5 ± 2.84 nM and the “Selectivity IC50(AChE)/IC50(BChE)” value is recorded as 24.4. Moreover, the concentration for half-maximal inhibition (IC50) in test [2] came out at 378 ± 42.4 nM.

Take `CC(=O)NCCc1c[nH]c2ccc(OC(=O)NCCCCCNc3c4c(nc5ccccc35)CCCC4)cc12` [Example 10, 3-[2-(acetylamino)ethyl]-1H-indol-5-yl[5-(1,2,3,4-tetrahydroacridin-9-ylamino)pentyl]carbamate]: the figures for the IC50 in test [1] and in test [2] were 2.07 ± 0.5 nM and 186 ± 11.2 nM, respectively. Also, the “Selectivity IC50(AChE)/IC50(BChE)” value in test [1] amounted to 90.1.

As for `CC(=O)NCCc1c[nH]c2ccc(OC(=O)NCCCCCCCCNc3c4c(nc5ccccc35)CCCC4)cc12` [Example 11, 3-[2-(acetylamino)ethyl]-1H-indol-5-yl[8-(1,2,3,4-tetrahydroacridin-9-ylamino)octyl]carbamate], in test [1], the IC50 stood at 0.25 ± 0.03 nM and the “Selectivity IC50(AChE)/IC50(BChE)” value was found to be 18.4. Moreover, inhibition in test [2] was half-maximal at 4.61 ± 0.32 nM (IC50).

`CC(=O)NCCc1c[nH]c2ccc(OC(=O)NCCCCCCCNc3c4c(nc5ccc(Cl)cc35)CCCC4)cc12` [Example 12, 3-[2-(acetylamino)ethyl]-1H-indol-5-yl{7-[(7-chloro-1,2,3,4-tetrahydroacridin-9-yl)amino]heptyl}carbamate]: the “Selectivity IC50(AChE)/IC50(BChE)” value in test [1] turned out to be 45.3.

Regarding `CC(=O)NCCc1c[nH]c2ccc(OC(=O)NCCNc3c4c(nc5ccc(Cl)cc35)CCCC4)cc12` [Example 13, 3-[2-(acetylamino)ethyl]-1H-indol-5-yl{2-[(7-chloro-1,2,3,4-tetrahydroacridin-9-yl)amino]ethyl}carbamate], the “Selectivity IC50(AChE)/IC50(BChE)” value in test [1] amounted to 400.1.

For the molecule `CC(=O)NCCc1c[nH]c2ccc(OC(=O)NCCCCCCCCCCNc3c4c(nc5ccccc35)CCCC4)cc12` [Example 14, 3-[2-(acetylamino)ethyl]-1H-indol-5-yl[10-(1,2,3,4-tetrahydroacridin-9-ylamino)decyl]carbamate], in test [1], the half-maximal inhibitory concentration (IC50) was 0.28 ± 0.04 nM and the “Selectivity IC50(AChE)/IC50(BChE)” value came to 4.2. It took 1.18 ± 0.12 nM to reach half-maximal inhibition in test [2] (IC50).

Turning to `CC(=O)NCCc1c[nH]c2ccc(OC(=O)NCCCCCCCCCCCCNc3c4c(nc5ccccc35)CCCC4)cc12` [Example 15, 3-[2-(acetylamino)ethyl]-1H-indol-5-yl[12-(1,2,3,4-tetrahydroacridin-9-ylamino)dodecyl]carbamate], in test [1], 0.24 ± 0.08 nM corresponded to half-maximal inhibition (IC50) and the “Selectivity IC50(AChE)/IC50(BChE)” value was 15.8. In test [2], this molecule gave an IC50 of 3.8 ± 0.16 nM.

As to `CC(=O)NCCc1c[nH]c2ccc(OC(=O)NCCCCCCCCCCNc3c4c(nc5ccc(Cl)cc35)CCCC4)cc12` [Example 16, 3-[2-(acetylamino)ethyl]-1H-indol-5-yl{10-[(7-chloro-1,2,3,4-tetrahydroacridin-9-yl)amino]decyl}carbamate], in test [1], the IC50 is 1.64 ± 0.14 nM and the “Selectivity IC50(AChE)/IC50(BChE)” value is reported as 0.9. The same molecule showed a concentration for half-maximal inhibition (IC50) in test [2] of 1.43 ± 0.02 nM.

Turning to `CC(=O)NCCc1c[nH]c2ccc(OC(=O)NCCCCCCCCCCCCNc3c4c(nc5ccc(Cl)cc35)CCCC4)cc12` [Example 17, 3-[2-(acetylamino)ethyl]-1H-indol-5-yl{12-[(7-chloro-1,2,3,4-tetrahydroacridin-9-yl)amino]dodecyl}carbamate], in test [1], the 50% inhibitory concentration (IC50) stood at 0.78 ± 0.16 nM and the “Selectivity IC50(AChE)/IC50(BChE)” value is recorded as 9. The molecule also came in with an IC50 in test [2] of 7 ± 0.72 nM.

For `CC(=O)NCCc1c[nH]c2ccc(OC(=O)NCCCCCCCCCCNc3c4c(nc5cc(Cl)ccc35)CCCC4)cc12` [Example 18, 3-[2-(acetylamino)ethyl]-1H-indol-5-yl{10-[(6-chloro-1,2,3,4-tetrahydroacridin-9-yl)amino]decyl}carbamate], the “Selectivity IC50(AChE)/IC50(BChE)” value in test [1] amounted to 6.7.

Turning to `CC(=O)NCCc1c[nH]c2ccc(OC(=O)NCCCCCCCCCCCCNc3c4c(nc5cc(Cl)ccc35)CCCC4)cc12` [Example 19, 3-[2-(acetylamino)ethyl]-1H-indol-5-yl{12-[(6-chloro-1,2,3,4-tetrahydroacridin-9-yl)amino]dodecyl}carbamate], the “Selectivity IC50(AChE)/IC50(BChE)” value in test [1] stood at 19.5.

As a reminder, the IC50 is the concentration that inhibits the measured activity by half.
